From US8754121B2, “Use of deoxyelephantopin (DET) and analogues thereof for treatment of melanoma” (priority 2010, dated 2014)
Read-outs that look alike come from different tables or passages of the source.

Key:
B16 melanoma cells [1] = assay: MTT cell viability assay, B16 cell proliferation; assay type: cell-based, murine; details: 24 h, 37° C., read-out: IC50, inhibition of B16 cell proliferation
Procedure: Human melanocytes and murine B16 melanoma cells obtained from the American Type Culture Collection (ATCC®, MD) were grown overnight in a 10-mm petri-dish at 37° C. in MEM and RPMI medium 1640, respectively, supplemented with 10% heat-inactivated FBS, 100 units/mL penicillin, and 100 μg/mL streptomycin, in a humidified 5% CO2 incubator. Cell viability was measured by MTT-based colorimetric assay. The formula to calculate viable cell (%) is as follows: Cell viability (%)=(sample OD550/control OD550)×100% Synergism of DET and Cisplatin

B16 cells = assay: Time-lapse cell motility assay; assay type: cell-based, murine; details: time-lapse videomicroscopy over 24 h, 3 μM DET, 40 μM CP, 3 μM DET plus 40 μM CP; for migration velocity of B16 cells: vehicle control 0.35±0.09; for migration distance of B16 cells: vehicle control 488.2±147.1
Procedure: Cell motility was assessed by time-lapse videomicroscopy. B16 cells were seeded in 6 cm dish for 3 h and maintained at constant temperature (37° C.) and 5% CO2 chamber throughout the experimental period. Cells were observed under an inverted microscope (Zeiss Axiovert 200M), and phase-contrast snap photographs (one frame every 30 min) were digitally recorded for 24 h. Cell paths were generated from centroid positions, and cell velocities of migration were analyzed using the tracking object of the Metamorph software (Molecular Device).

B16 melanoma cells [2] = assay: Migration and invasion assay (trans-well); assay type: cell-based, murine; details: 24 h; for B16 melanoma cell invasion: Matrigel
Procedure: B16 cells (1×10^5 cells) were cultured in culture-inserts of boyden chamber (ibidi, Germany) for 12 h. The culture-inserts were removed and added DET or cisplatin alone or in combination for 24 h. B16 cells were added into a 24-transwell permeable plate (8.0 μm polycarbonate membrane, 6.5 mm insert; Corning Incorporated, Corning, N.Y.) coated with Matrigel basement membrane matrix. The bottom wells received 50 μL medium having the same concentration of serum as the top well, either 1% or 10% FBS. Cells were removed from the upper and lower sides of the filter after 24 h. The ratio of the counts obtained from the bottom versus total counts from both sides was used to determine migration and invasiveness. The invading cells remaining in the well were counted in six randomly chosen low-power fields at 100× original magnification by inverted fluorescence microscopy.

B16 melanoma cells [3] = assay: Cell cycle analysis by flow cytometry (sub-G1 fraction); assay type: cell-based, murine; details: 24 h, data not shown
Procedure: Both adherent and floating cells were collected, washed with PBS and fixed with 1 mL of ice-cold 70% ethanol overnight at 4° C.

[4] = tested on: lung metastasis of B16 melanoma (B16-COX-2/Luc cells); assay: Inhibition of lung metastasis of B16 cells in syngeneic mice, in vivo bioluminescence imaging; set-up: species or system C57BL/6J mice; details: for mean bioluminescence intensity compared to tumor group (100%): Day 30; for remained bioluminescence intensity relative to tumor control group (100%): Day 21
Procedure: Stable B16 melanoma cell clone carrying COX-2 promoter driven-luciferase (pGL-COX-2/Luc) reporter gene plasmid was established. […] The B16-COX-2/Luc stable cell line was used in the mouse lung metastasis experiments.
After 10 minutes of incubation with luciferin, each mouse was placed in a right lateral decubitus position and a digital grayscale animal image was acquired using an IVIS spectrum (Xenogen Corp.). The acquisition and overlay of a pseudocolor image was taken, which represents the spatial distribution of detected photons emerging from active luciferase within the animals. Signal intensity was quantified using an IVIS Spectrum system (Xenogen Corp.) as the sum of all detected photons per second on Day 0, 7, 14, 18, 21, 23, 26 and 30 of treatment.

[5] = tested on: metastatic B16 melanoma tumors; assay: Survival of mice carrying metastatic B16 melanoma; assay type: in vivo, C57BL/6J mice; details: tumor control 33 days
Procedure: All data were expressed as means±SD. For the survival data, the log-rank test was used to determine differences among tumor control, drug and compound treated groups. For other experiments, differences between treatments were determined by ANOVA. A P<0.05 is considered statistically significant.

[6] = Body weight of B16 tumor-bearing mice; assay type: in vivo, C57BL/6J mice; details: groups CP2 (cisplatin 2 mg/kg BW) and DET10+CP1, i.p. every two days; P<0.05
Procedure: Female C57BL/6J mice (National Laboratory Animal Center, Tainan, Taiwan) were given a standard laboratory diet and distilled water ad libitum and kept on a 12-h light/dark cycle at 22±2° C. In total, 63 mice were randomly divided and assigned into 7 groups. Female C57BL/6J mice received an intravenous (i.v) injection with 1×10^5 B16 cells in 200 μL PBS through the tail vein at Day 0. On Day 1, mice were divided into tumor group, CP2 group, DET10 group, DET10+CP1 group, and CP2→DET10 group. The mice were treated intraperitoneally (i.p.) every two days with 2 mg/kg body weight (BW) cisplatin (CP2), 10 mg/kg BW DET (DET10), DET10 mixed with 1 mg/kg BW cisplatin (DET10+CP1), and with CP2 five times and DET10 five times, then CP2 and DET10 taking turns every two days till the end of the experiments (CP2→DET10 group), respectively. The Pre-DET10 group mice were treated i.p with DET (10 mg/kg BW) every two days two weeks before (Day 14) tumor cells inoculation on Day 0, and continuously treated with DET10 till the end of the experiment. The tumor control mice were treated with vehicle DMSO. The mice in the sham control group were injected i.p. with 20 μL DMSO on Day 1 every 2 days throughout the experimental period. Tumor volumes were measured every 3 days and the body weight recorded once a week.

[7] = Primary metabolome of kidney tissues by UPLC/ESI-Q-TOF MS; assay type: in vivo, C57BL/6J mice
Procedure: Primary metabolome in the kidney tissues of test mice with various treatments were analyzed using UPLC-QTOF MS. Kidney samples (150 mg) were homogenized with 600 μL methanol and 127.5 μL distilled water. The homogenates were vigorously mixed with 1.2 mL chloroform:H2O solution (1:1, v/v) and then put at −20° C. for 20 min. After centrifugation at 13000×g for 10 min at 4° C., the supernatant (water layer) was collected, dried in a vacuum, and then reconstituted in 100 μL of 50% methanol for analysis.
LC-MS was performed with a LC system (ACQUITY UPLC, Waters, Millford, Mass.) coupled to a hybrid Q-TOF mass spectrometer (Synapt HDMS, Waters, Manchester, U.K.). The sample was separated online with a reverse-phase column (HSS T3 C18, 1.8 μm, 2.1 mm×150 mm, Waters, Milford, Mass.) which was kept in a column oven at 40° C. The mobile phases for positive ion mode consisted of 0.1% formic acid in 2% ACN (buffer A) and 0.1% formic acid in 100% ACN (buffer B). The mobile phases for negative ion mode consisted of pure H2O (buffer A) and pure 100% AcCN (buffer B).
The mass spectrometer equipped with lock electrospray ionization probe was operated in both positive and negative (ESI) modes. The electrospray voltage was set at 3 kV for positive ion mode and −2.5 kV for negative ion mode, and the cone voltage was 40V. The cone and desolvation gas flow were 50 and 700 L/h, respectively. A lock mass calibration of sulfadimethoxin (0.5 mg/L) in water/MeOH (50:50, v/v) was introduce by the HPLC pump (LC-10ATVP, Shimadzu, Japan) and split the 5 μL/min to the lockspray probe. The acquisition method was set to one full MS scan (50-990 m/z) with 0.2 sec scan time in centroid data mode.
The UPLC-MS data were analyzed using MarkerLynx XS version 4.1 SCN639 (Waters, Millford, Mass.). In this application, the peaks in the 0.5-4 min LC-MS data were detected and the noise reduced in both LC and MS domains. The extracted peak information was also processed to remove the peak-to-peak noise, deisotope and filter the MS peak with the intensity lower than 50 counts. A list of the intensities of the processed peaks for each of the LC-MS data was generated using retention time (RT) and m/z data pairs as the identifier of each peak. The processed data for each sample were combined and aligned for each of the RT-m/z pair to generate the final data table. The ion intensities for each peak were then normalized within each sample and the 3-dimensional data, peak identifier (RT-m/z pair), sample name, and ion intensity were analyzed by principle component analysis (PCA). Partial least-squares-discriminant analysis (PLS-DA), a supervised chemometric procedure, was used to define the maximum classification and separation of independent samples.

[8] = for plasma BUN: groups CP2 and DET10+CP1
Procedure: (§1) Female C57BL/6J mice (National Laboratory Animal Center, Tainan, Taiwan) were given a standard laboratory diet and distilled water ad libitum and kept on a 12-h light/dark cycle at 22±2° C. In total, 63 mice were randomly divided and assigned into 7 groups. Female C57BL/6J mice received an intravenous (i.v) injection with 1×10^5 B16 cells in 200 μL PBS through the tail vein at Day 0. On Day 1, mice were divided into tumor group, CP2 group, DET10 group, DET10+CP1 group, and CP2→DET10 group. The mice were treated intraperitoneally (i.p.) every two days with 2 mg/kg body weight (BW) cisplatin (CP2), 10 mg/kg BW DET (DET10), DET10 mixed with 1 mg/kg BW cisplatin (DET10+CP1), and with CP2 five times and DET10 five times, then CP2 and DET10 taking turns every two days till the end of the experiments (CP2→DET10 group), respectively. The Pre-DET10 group mice were treated i.p with DET (10 mg/kg BW) every two days two weeks before (Day 14) tumor cells inoculation on Day 0, and continuously treated with DET10 till the end of the experiment. The tumor control mice were treated with vehicle DMSO. The mice in the sham control group were injected i.p. with 20 μL DMSO on Day 1 every 2 days throughout the experimental period.
The plasma BUN content, an indication of kidney function, was determined in test animals using QuantiChrom™ Urea Kit (BioAssay Systems).

[9] = Day 21
Procedure: Female C57BL/6J mice (National Laboratory Animal Center, Tainan, Taiwan) were given a standard laboratory diet and distilled water ad libitum and kept on a 12-h light/dark cycle at 22±2° C. In total, 63 mice were randomly divided and assigned into 7 groups. Female C57BL/6J mice received an intravenous (i.v) injection with 1×10^5 B16 cells in 200 μL PBS through the tail vein at Day 0. On Day 1, mice were divided into tumor group, CP2 group, DET10 group, DET10+CP1 group, and CP2→DET10 group. The mice were treated intraperitoneally (i.p.) every two days with 2 mg/kg body weight (BW) cisplatin (CP2), 10 mg/kg BW DET (DET10), DET10 mixed with 1 mg/kg BW cisplatin (DET10+CP1), and with CP2 five times and DET10 five times, then CP2 and DET10 taking turns every two days till the end of the experiments (CP2→DET10 group), respectively. The Pre-DET10 group mice were treated i.p with DET (10 mg/kg BW) every two days two weeks before (Day 14) tumor cells inoculation on Day 0, and continuously treated with DET10 till the end of the experiment. The tumor control mice were treated with vehicle DMSO. The mice in the sham control group were injected i.p. with 20 μL DMSO on Day 1 every 2 days throughout the experimental period. […] On Day 21 post-tumor injection, three mice from each group were euthanized and blood collected for complete blood count (CBC) analysis.
Complete blood samples of test mice in each group on Day 21 were subjected to the analysis of white blood cell (WBC), neutrophil (N), monocyte (M), basophil (B) red blood cell (RBC), platelet (PLT), hemoglobin (Hb), and hematocrit (Ht) and other cell counts with a hemacytometer (FIG. 10).

[10] = Histology, TUNEL and F4/80 immunostaining of kidney tissues
Procedure: as §1
Paraffin-embedded kidney tissues were prepared from three mice in each group on Day 21. The paraffin-embedded kidney was sectioned (4 μm) and underwent H&E staining. In situ apoptotic cells in kidney tissues were determined by TUNEL assay (Chemicon) and the mean proportions of positive TUNEL cells were measured using AxioVision software (Carl Zeiss MicroImaging, Inc.). Immunostaining of macrophage infiltration in the kidney tissues was performed using F4/80 antibody and visualized with goat anti-mouse Cy3-labeled secondary antibodies (Jackson ImmunoResearch), counterstained with DAPI (1 μg/mL).

Human melanocytes = assay: MTT cell viability assay, normal melanocytes; assay type: cell-based; details: 24 h
Procedure: Cell viability was measured by MTT-based colorimetric assay.

[11] = i.p. every two days from Day 1, groups CP2 (cisplatin 2 mg/kg BW), DET10 (DET 10 mg/kg BW), DET10+CP1, CP2→DET10
[12] = i.p. every two days from Day 1, groups CP2, DET10, DET10+CP1, CP2→DET10
[13] = Day 21, groups CP2, DET10, DET10+CP1, CP2→DET10, i.p. every two days from Day 1
[14] = groups CP2, DET10, DET10+CP1, CP2→DET10, compared with control tumor-bearing group
[15] = Pre-DET10 group: DET 10 mg/kg BW i.p. every two days from two weeks before tumor inoculation to end
[16] = pre-DET and DET groups, assignment to group unclear

With N.N.[Cl][Pt][Cl] [CP, cis-diamminedichloroplatinum(II), reference compound] as the molecule, how does the IC50 (B16 melanoma cells [1]) read?
Its IC50 is 45 µM.

And the “migration velocity of B16 cells” value (B16 cells)?
Its value is 0.26±0.14 μm/min.

And the “migration distance of B16 cells” value (B16 cells)?
Its value is 376.6±100 μm.

What about the “B16 melanoma cell migration” value (B16 melanoma cells [2]) of the same molecule?
Its value is “inhibited”.

What about the “B16 melanoma cell invasion” value (B16 melanoma cells [2]) of the same molecule?
The value was “inhibited”.

And the “sub-G1 (apoptotic) cell fraction” value (B16 melanoma cells [3])?
Its value is 9%.

What about the “mean bioluminescence intensity compared to tumor group (100%)” value (from here on “mean bioluminescence intensity … (100%)”) [4, 11] of the same molecule?
Its value is 2%.

What about the median survival [5, 12] of the same molecule?
Its median survival is 43 days.

And the “body weight of test mice” value [6]?
The value was “significantly decreased”.

And the “decrease in alanine, aspartate, phenylalanine, and tryptophan in kidney tissues, in comparison with the sham control” value ([7]; CP2 group)?
Its value is 1.7- to 2.4 fold.

And the “increase in pyruvate, citrulline, creatine, uric acid, hippuric acid, and 5-HIAA in kidney tissues, in comparison with the sham control” value ([7]; CP2 group)?
Its value is 1.6- to 12.5 fold.

What about the “increase in 5-HIAA in kidney tissues” value ([7]; groups CP alone, DET+CP, CP→DET) of the same molecule?
The value was 8.6 fold.

And the “plasma BUN” value ([8]; Day 14, sham control 25.4±4.1)?
Its value is 61.1 ± 4.3 mg/dL.

And the “plasma BUN” value ([8]; Day 21, sham control 25.1±4.1)?
The value was 67.3 ± 0.1 mg/dL.

What about the “neutrophil population, times higher than the sham control” value ([9]; CP2 group) of the same molecule?
Its value is 3.5 times.

And the “neutrophil population, times higher than the tumor group” value ([9]; CP2 group)?
The value was 2.55 times.

What about the “effect on the peripheral blood cells profile (haematological toxicity)” value (“effect … (haematological toxicity)” below) ([9]; groups CP2 and DET10) of the same molecule?
Its value is “severe haematological toxicity”.

And the “H&E staining of kidney tissues” value ([10]; Day 21, CP2 group, cisplatin 2 mg/kg BW i.p. every two days)?
Its value is “severe glomerular congestion and tubular epithelial atrophy”.

What about the “TUNEL-positive (apoptotic) cells in renal tissues” value (from here on “TUNEL-positive (apoptotic) cells”) [10, 13] of the same molecule?
Its value is “observed mostly”.

And the “macrophage/monocyte infiltration in renal tissues (F4/80 immunostaining)” value (shortened to “macrophage/monocyte infiltration”) [10, 14]?
Its value is “much significant”.

With C=C(C)C(=O)O[C@H]1CC2=C[C@@H](C/C(C)=C/[C@H]3OC(=O)C(=C)[C@H]13)OC2=O [DET, deoxyelephantopin] as the molecule, how does the IC50 (B16 melanoma cells [1]) read?
The IC50 was 4.5 µM.

And the “toxicity on normal human melanocytes” value (Human melanocytes)?
Its value is “little or no toxicity”.

What about the “migration velocity of B16 cells” value (B16 cells) of the same molecule?
Its value is 0.16±0.06 μm/min.

And the “migration distance of B16 cells” value (B16 cells)?
The value was 224.1±85.9 μm.

What about the “B16 melanoma cell migration” value (B16 melanoma cells [2]) of the same molecule?
The value was “inhibited”.

And the “B16 melanoma cell invasion” value (B16 melanoma cells [2])?
The value was “inhibited”.

What about the “sub-G1 (apoptotic) cell fraction” value (B16 melanoma cells [3]) of the same molecule?
The value was 8.5%.

What about the “remained bioluminescence intensity relative to tumor control group (100%)” value [4, 15] of the same molecule?
The value was 15%.

What about the “remained bioluminescence intensity relative to tumor control group (100%)” value [4, 11] of the same molecule?
The value was 49%.

And the “mean bioluminescence intensity … (100%)” value [4, 15]?
Its value is 23%.

What about the “mean bioluminescence intensity … (100%)” value [4, 11] of the same molecule?
Its value is 45%.

And the median survival ([5]; Pre-DET10 group: DET 10 mg/kg BW i.p. from two weeks before tumor inoculation)?
Its median survival is 43 days.

And the median survival [5, 12]?
Its median survival is 39 days.

What about the “increase in carnitine in kidney tissues” value [7, 16] of the same molecule?
The value was 2.3 fold.

What about the “increase in pyruvate in kidney tissues” value [7, 16] of the same molecule?
Its value is 1.6 fold.

What about the “increase in taurine in kidney tissues” value [7, 16] of the same molecule?
The value was 2.1 fold.

What about the “change of BUN level compared to the sham control group” value ([8]; DET10 group, DET 10 mg/kg BW i.p. every two days from Day 1) of the same molecule?
The value was “little or no detectable changes”.

What about the “change of BUN level compared to the sham control group” value ([8]; Pre-DET10 group, DET 10 mg/kg BW from two weeks before tumor inoculation) of the same molecule?
Its value is “little or no detectable changes”.

And the “effect … (haematological toxicity)” value ([9]; Pre-DET10 group)?
Its value is “did not cause deleterious effect”.

What about the “effect … (haematological toxicity)” value ([9]; groups CP2 and DET10) of the same molecule?
Its value is “did not cause deleterious effect”.

What about the “levels of neutrophil (N) counts” value ([9]; groups DET10, DET10+CP1, CP2→DET10) of the same molecule?
Its value is “Increase levels”.

And the “TUNEL-positive (apoptotic) cells” value ([10]; Day 21, Pre-DET10 group, DET 10 mg/kg BW from two weeks before tumor inoculation)?
Its value is “not detectable”.

What about the “TUNEL-positive (apoptotic) cells” value [10, 13] of the same molecule?
Its value is “not detectable”.

What about the “macrophage/monocyte infiltration” value ([10]; Pre-DET10 group) of the same molecule?
The value was “little or no detectable inflammatory cell infiltration”.

What about the “macrophage/monocyte infiltration” value [10, 14] of the same molecule?
The value was “little or no detectable inflammatory cell infiltration”.
